Data from US9346811B2, “6,7-dihydro-pyrazolo[1,5-a]pyrazin-4-ylamine derivatives useful as inhibitors of beta-secretase (BACE)” (JANSSEN PHARMACEUTICA NV, priority 2011, dated 2016).

Columns and labels:
[1] = system: Aβ42 produced and secreted into the medium of human neuroblastoma SKNBE2 cells; test: Cellular αlisa assay in SKNBE2 cells, Aβ42; type: cell-based; settings: SKNBE2 cells expressing hAPP695, 18 hours incubation; for IC50: Homo sapiens, SKNBE2, 18 h, read-out: Cellular αlisa assay in SKNBE2 cells Aβ42 pIC50 (converted)
Experimental: (§1) Cellular αlisa Assay in SKNBE2 Cells
(§2) In two αlisa assays the levels of Aβtotal and Aβ42 produced and secreted into the medium of human neuroblastoma SKNBE2 cells are quantified. The assay is based on the human neuroblastoma SKNBE2 expressing the wild type Amyloid Precursor Protein (hAPP695). The compounds are diluted and added to these cells, incubated for 18 hours and then measurements of Aβ42 and Aβtotal are taken. Aβtotal and Aβ42 are measured by sandwich αlisa. αlisa is a sandwich assay using biotinylated antibody AbN/25 attached to streptavidin coated beads and antibody Ab4G8 or cAb42/26 conjugated acceptor beads for the detection of Aβtotal and Aβ42 respectively. In the presence of Aβtotal or Aβ42, the beads come into close proximity. The excitation of the Donor beads provokes the release of singlet oxygen molecules that triggers a cascade of energy transfer in the Acceptor beads, resulting in light emission. Light emission is measured after 1 hour incubation (excitation at […] and emission at 615 nm).
(§3) A best-fit curve is fitted by a minimum sum of squares method to the plot of % Controlmin versus compound concentration.

brain levels of total Aβ = test: In vivo efficacy: brain Aβtotal lowering (ELISA); design: species or system mouse
Source text: (§4) To determine whether acute administration of an Aβ42 peptide lowering agent would reduce Aβ peptide levels in vivo, non-transgenic rodents, e.g. mice or rats were used. Animals treated with the Aβ peptide lowering agent were examined and compared to those untreated or treated with vehicle and brain levels of soluble Aβ42 and total Aβ were quantitated by standard techniques, for example, using ELISA. Treatment periods varied from hours (h) to days and were adjusted based on the results of the Aβ42 lowering once a time course of onset of effect could be established.
(§5) A typical protocol for measuring Aβ42 lowering in vivo is shown but it is only one of many variations that could be used to optimize the levels of detectable Aβ. For example, Aβ peptide lowering compounds were formulated in 20% hydroxypropyl β cyclodextrin. The Aβ peptide lowering agents were administered as a single oral dose (p.o.) or a single subcutaneous dose (s.c.) to overnight fasted animals. After a certain time, usually 2 or 4 h (as indicated in Table 7), the animals were sacrificed and Aβ42 levels were analysed.
(§6) Blood was collected by decapitation and exsanguinations in EDTA-treated collection tubes. Blood was centrifuged at 1900 g for 10 minutes (min) at 4° C. and the plasma recovered and flash frozen for later analysis. The brain was removed from the cranium and hindbrain. The cerebellum was removed and the left and right hemisphere were separated. The left hemisphere was stored at −18° C. for quantitative analysis of test compound levels. The right hemisphere was rinsed with phosphate-buffered saline (PBS) buffer and immediately frozen on dry ice and stored at −80° C. until homogenization for biochemical assays.
(§7) Mouse brains from non-transgenic animals were resuspended in 8 volumes of 0.4% DEA (diethylamine)/50 mM NaCl containing protease inhibitors (Roche-11873580001 or 04693159001) per gram of tissue, e.g. for 0.158 g brain, add 1.264 ml of 0.4% DEA. All samples were homogenized in the FastPrep-24 system (MP Biomedicals) using lysing matrix D (MPBio #6913-100) at 6 m/s for 20 seconds. Homogenates were centrifuged at 221.300×g for 50 min. The resulting high speed supernatants were then transferred to fresh eppendorf tubes. Nine parts of supernatant were neutralized with 1 part 0.5 M Tris-HCl pH 6.8 and used to quantify Aβtotal and Aβ42.
(§8) To quantify the amount of Aβtotal and Aβ42 in the soluble fraction of the brain homogenates, Enzyme-Linked-Immunosorbent-Assays were used. Briefly, the standards (a dilution of synthetic Aβ1-40 and […], Bachem) were prepared in 1.5 ml Eppendorf tube in Ultraculture, with final concentrations ranging from 10000 to 0.3 pg/ml. The samples and standards were co-incubated with HRPO-labelled N-terminal antibody for Aβ42 detection and with the biotinylated mid-domain antibody 4G8 for Aβtotal detection. 50 μl of conjugate/sample or conjugate/standards mixtures were then added to the antibody-coated plate (the capture antibodies selectively recognize the C-terminal end of Aβ42, antibody JRF/cAβ42/26, for Aβ42 detection and the N-terminus of Aβ, antibody JRF/rAβ/2, for Aβtotal detection). The plate was allowed to incubate overnight at 4° C. in order to allow formation of the antibody-amyloid complex. Following this incubation and subsequent wash steps the ELISA for Aβ42 quantification was finished by addition of Quanta Blu fluorogenic peroxidase substrate according to the manufacturer's instructions (Pierce Corp., Rockford, Il.). A reading was performed after 10 to 15 min (excitation 320 nm/emission 420 nm).
For Aβtotal detection, a Streptavidine-Peroxidase-Conjugate was added, followed 60 min later by an additional wash step and addition of Quanta Blu fluorogenic peroxidase substrate according to the manufacturer's instructions (Pierce Corp., Rockford, Il.). A reading was performed after 10 to 15 min (excitation 320 nm/emission 420 nm).

[2] = system: brain levels of soluble Aβ42; test: In vivo efficacy: brain Aβ42 lowering (ELISA); design: species or system mouse
Source text: as §4, §5, §6, §7, §8
In this model at least 20% Aβ42 lowering compared to untreated animals would be advantageous.

[3] = system: Aβtotal produced and secreted into the medium of human neuroblastoma SKNBE2 cells; test: Cellular αlisa assay in SKNBE2 cells, Aβtotal; type: cell-based; settings: SKNBE2 cells expressing hAPP695, 18 hours incubation; for IC50: Homo sapiens, SKNBE2, 18 h, read-out: Cellular αlisa assay in SKNBE2 cells Aβtotal pIC50 (converted)
Experimental: as §1, §2, §3

[4] = target: recombinant BACE1 protein (Homo sapiens, UniProt P56817); test: Biochemical FRET based assay; settings: recombinant BACE1 1 μg/ml, 120 min, pH 5.0; for IC50: read-out: Biochemical FRET based assay pIC50 (converted)
Source text: Biochemical FRET Based Assay
This assay is a Fluorescence Resonance Energy Transfer Assay (FRET) based assay. The substrate for this assay is an APP derived 13 amino acids peptide that contains the ‘Swedish’ Lys-Met/Asn-Leu mutation of the amyloid precursor protein (APP) β-secretase cleavage site. This substrate also contains two fluorophores: (7-methoxycoumarin-4-yl)acetic acid (Mca) is a fluorescent donor with excitation wavelength at 320 nm and emission at 405 nm and 2,4-Dinitrophenyl (Dnp) is a proprietary quencher acceptor. […] Upon cleavage by BACE1, the fluorophore Mca is separated from the quenching group Dnp, restoring the full fluorescence yield of the donor. The increase in fluorescence is linearly related to the rate of proteolysis (Koike H et al. J. Biochem. 1999, 126, 235-242). Briefly in a 384-well format recombinant BACE1 protein in a final concentration of 1 μg/ml is incubated for 120 min at room temperature with 10 μm substrate in incubation buffer (40 mM Citrate buffer pH 5.0, 0.04% PEG, 4% DMSO) in the absence or presence of compound. Next the amount of proteolysis is directly measured by fluorescence measurement at T=0 and T=120 (excitation at 320 nm and emission at 405 nm).

[5] = 30 mg/kg p.o., 4 h. after administration
[6] = 10 mg/kg p.o., 4 h. after administration
[7] = 30 mg/kg p.o., 2 h after administration
[8] = 100 mg/kg s.c., 4 h. after administration
[9] = 5 mg/kg p.o., 4 h. after administration

Chain of recombinant BACE1 protein (P56817 46-501): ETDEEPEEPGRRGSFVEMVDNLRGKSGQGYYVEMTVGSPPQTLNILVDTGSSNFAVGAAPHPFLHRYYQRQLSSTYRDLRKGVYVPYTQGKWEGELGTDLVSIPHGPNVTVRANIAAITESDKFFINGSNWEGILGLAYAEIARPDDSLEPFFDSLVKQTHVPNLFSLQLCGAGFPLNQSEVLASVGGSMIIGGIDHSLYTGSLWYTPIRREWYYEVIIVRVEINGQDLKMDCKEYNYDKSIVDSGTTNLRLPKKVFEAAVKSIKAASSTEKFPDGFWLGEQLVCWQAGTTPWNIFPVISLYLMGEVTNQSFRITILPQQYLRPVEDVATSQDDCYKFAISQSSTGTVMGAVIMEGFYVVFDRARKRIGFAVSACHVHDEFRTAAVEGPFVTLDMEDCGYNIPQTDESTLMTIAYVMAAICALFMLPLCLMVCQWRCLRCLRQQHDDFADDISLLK

Cellular αlisa assay in SKNBE2 cells Aβ42 pIC50 [1]	Cellular αlisa assay in SKNBE2 cells Aβtotal pIC50 [3]	IC50 [1] [nM]	IC50 [4] [nM]	IC50 [3] [nM]	Biochemical FRET based assay pIC50 [4]	SMILES	Aβtotal (% Ctrl)_Mean (brain levels of total Aβ; [5]) [% Ctrl]	Aβ42 (% Ctrl)_Mean [2, 5] [% Ctrl]	Aβtotal (% Ctrl)_Mean (brain levels of total Aβ; [6]) [% Ctrl]	Aβ42 (% Ctrl)_Mean [2, 6] [% Ctrl]	also measured
8.66	8.69					CC1(c2cccc(NC(=O)c3ccc(C#N)cn3)c2)Cn2nccc2C(N)=N1 (single isomer, unassigned) [Compound 7, (R*)-5-cyano-pyridine-2-carboxylic acid [3-(4-amino-6-methyl-6,7-dihydro-pyrazolo[1,5-a]pyrazin-6-yl)-phenyl]-amide]	101	88			
		16.2	81.3	17		COc1cnc(C(=O)Nc2ccc(F)c([C@]3(C)Cn4nc(C)c(F)c4C(N)=N3)c2)cn1 [Compound 29, (R)-5-methoxy-pyrazine-2-carboxylic acid [3-(4-amino-3-fluoro-2,6-dimethyl-6,7-dihydro-pyrazolo[1,5-a]pyrazin-6-yl)-4-fluoro-phenyl]-amide]			58	59	
		7.08	60.3	6.76		C[C@@]1(c2cc(NC(=O)c3ccc(F)cn3)ccc2F)Cn2nc(C(F)F)cc2C(N)=N1 [Compound 27, (R)-5-fluoro-pyridine-2-carboxylic acid [3-(4-amino-2-difluoromethyl-6-methyl-6,7-dihydro-pyrazolo[1,5-a]pyrazin-6-yl)-4-fluoro-phenyl]-amide]			61	55	
7.94	8.01		28.2			CC1(c2cccc(NC(=O)c3ncc(Cl)cc3Cl)c2)Cn2nc(C(F)(F)F)cc2C(N)=N1 (single isomer, unassigned) [Compound 11, (R*)-3,5-dichloro-pyridine-2-carboxylic acid [3-(4-amino-6-methyl-2-trifluoromethyl-6,7-dihydro-pyrazolo[1,5-a]pyrazin-6-yl)-phenyl]-amide]	84	89			
7.76	7.84				7.20	COc1cnc(C(=O)Nc2cccc(C3(C)Cn4nc(C(F)(F)F)cc4C(N)=N3)c2)cn1 (single isomer, unassigned) [Compound 32]					Aβtotal (% Ctrl)_Mean (brain levels of total Aβ; [7]): 58 % Ctrl; Aβ42 (% Ctrl)_Mean [2, 7]: 53 % Ctrl
8.09	8.14				7.19	CC1(c2cc(NC(=O)c3ccc(F)cn3)ccc2F)Cn2ncc(F)c2C(N)=N1 (stereo not shown) [Compound 33]					Aβtotal (% Ctrl)_Mean (brain levels of total Aβ; [8]): 20 % Ctrl; Aβ42 (% Ctrl)_Mean [2, 8]: 49 % Ctrl
		5.25	69.2	6.31		COc1cnc(C(=O)Nc2ccc(F)c([C@]3(C)Cn4nc(C(F)F)cc4C(N)=N3)c2)cn1 [Compound 28, (R)-5-methoxy-pyrazine-2-carboxylic acid [3-(4-amino-2-difluoromethyl-6-methyl-6,7-dihydro-pyrazolo[1,5-a]pyrazin-6-yl)-4-fluoro-phenyl]-amide]			50	39	
		1.78	39.8	1.95		COc1cnc(C(=O)Nc2ccc(F)c([C@]3(C)Cn4nc(C#N)cc4C(N)=N3)c2)cn1 [Compound 23, (R)-5-methoxy-pyrazine-2-carboxylic acid [3-(4-amino-2-cyano-6-methyl-6,7-dihydro-pyrazolo[1,5-a]pyrazin-6-yl)-4-fluoro-phenyl]-amide]			39	45	
6.03	6.07				5.86	COc1cnc(C(=O)Nc2ccc(F)c(C3(C)Cn4ncc(Cl)c4C(N)=N3)c2)cn1 (stereo not shown) [Compound 37]					
		3.31	32.4	3.89		C[C@@]1(c2cc(NC(=O)c3ccc(F)cn3)ccc2F)Cn2nc(C#N)cc2C(N)=N1 [Compound 24, (R)-5-fluoro-pyridine-2-carboxylic acid [3-(4-amino-2-cyano-6-methyl-6,7-dihydro-pyrazolo[1,5-a]pyrazin-6-yl)-4-fluoro-phenyl]-amide]	31	16			Aβtotal (% Ctrl)_Mean (brain levels of total Aβ; [9]): 59 % Ctrl; Aβ42 (% Ctrl)_Mean [2, 9]: 66 % Ctrl
